Results reported in patent US20220204577A1, “Synthetic Peptides With Affinity for the Interleukin-10 Receptor, Pharmaceutical Composition and Use Thereof as Immunomodulators for Treating Autoimmune, Inflammatory or Allergic Diseases” (Universidade Federal de Uberlândia, priority 2019, published 2022).
Positions of bridges follow the written chain, without caps; N, C: chain ends. No end group written: not given here.

Legend:
NFκB [1] = experiment: NFkB expression in Jurkart-Dual reporter cells, TNF-α pre-treatment then peptides; type: cell-based; details: for NFκB signaling: TNF-α then peptide
Protocol: Then another assay was performed in which the cells were pretreated with TNF-α and the peptides were added later. […] In the assays shown in FIGS. 4 A, B, and C the analysis of NFkB expression was performed in Jurkart-Dual reporter cells. Cells were treated with TNF-α (200 ng/ml) for 1 hour and the peptides were added. Luciferase was measured after 12 hours of treatment (FIG. 4A), 24 hours of treatment (FIG. 4B), and 48 hours of treatment (FIG. 4C). TNF-α (200 ng/mL) was used as a positive control and rIL-10 (Recombinant Interleukin-10) (0.4 ng/mL) as a negative control. * P<0.05; ** P<0.005; *** P<0.0005.

NFκB [2] = experiment: NFkB expression in Jurkart-Dual reporter cells, peptide pre-treatment then TNF-α; type: cell-based; details: peptide 1 hour, then TNF-α 200 ng/ml; all concentrations tested; 12, 24 and 48 hours
Protocol: The assay was then performed using TNF-α as the activating molecule not only in the control, but after a pre-treatment with the synthesized peptides Pep 1, Pep 2, Pep 3, and Pep 4 at various concentrations. […] In the assays shown in FIGS. 3 A, B, and C, NFkB expression analysis was performed in Jurkart-Dual reporter cells. Cells were treated with peptides for 1 hour and TNF-α (200 ng/ml) was added. Luciferase was measured after 12 hours of treatment (FIG. 3A), 24 hours of treatment (FIG. 3B), and 48 hours of treatment (FIG. 3C).

[3] = Dynamic Light Scattering (DLS), aggregation behavior in solution; type: physicochemical
Protocol: The aggregation behavior of peptides Pep 1, Pep 2, Pep 3, and Pep 4 in solution was determined by Dynamic Light Scattering (DLS), as shown in FIG. 1E. All synthetic peptides were approximately 100% monomeric in solution. The measured hydrodynamic radius of the peptides was similar for Pep 1 (0.82 nm), Pep 2 ([…]), Pep 3 (0.79 nm), and Pep 4 (0.86 nm).

Pep 1: synthetic peptide with affinity to the Interleukin-10 receptor, SEQ ID No 01, with disulfide bridges (HACSAVIKSSCGGGS; disulfide 3-11 (inferred))
NFκB signaling (NFκB [1]; 0.0001 μM, 24 hours): less activation of the analyzed signaling pathway
NFκB signaling (NFκB [1]; 0.001 μM, 12 hours): decreased the activation of the analyzed pathway
NFκB signaling (NFκB [1]; 0.001 μM, 24 hours): less activation of the analyzed signaling pathway
NFκB signaling (NFκB [1]; 0.001 μM, 48 hours): reducing NFκB signaling
NFκB signaling (NFκB [1]; 0.005 μM, 24 hours): less activation of the analyzed signaling pathway
NFκB signaling (NFκB [1]; 0.05 μM, 12 hours): decreased the activation of the analyzed pathway
NFκB signaling (NFκB [1]; 0.1 μM, 12 hours): decreased the activation of the analyzed pathway
NFκB signaling (NFκB [1]; 0.1 μM, 24 hours): less activation of the analyzed signaling pathway
NFκB signaling (NFκB [1]; 0.5 μM, 12 hours): decreased the activation of the analyzed pathway
NFκB signaling (NFκB [1]; 1 μM, 12 hours): decreased the activation of the analyzed pathway
NFκB signaling (NFκB [1]; 1 μM, 24 hours): less activation of the analyzed signaling pathway
NFκB signaling (NFκB [1]; 5 μM, 12 hours): decreased the activation of the analyzed pathway
NFκB signaling (NFκB [1]; 10 μM, 12 hours): decreased the activation of the analyzed pathway
NFκB signaling (NFκB [1]; 10 μM, 24 hours): less activation of the analyzed signaling pathway
NFκB signaling (NFκB [1]; 100 μM, 24 hours): less activation of the analyzed signaling pathway
NFκB activation (NFκB [1]; cells pretreated with TNF-α, all concentrations tested, 12 and 24 hours): decreased NFκB activation
NFκB activation (NFκB [2]): able to decrease NFκB activation
hydrodynamic radius [3]: 0.82 nm
